The text below walks through data of patent publication EP0032564A1, “Pharmaceutical use of caroverine and/or salts of caroverine, as well as salts of caroverine with xanthine acid remainders and nicotinic acid remainder” (MEDICHEMIE AG, priority 1979, dated 1981).

The subject of data set [1] is anemische Decerebrationsstarre. Description: Inhibition of anemic decerebrate rigidity in rats, method of Fukuda et al. Format: in vivo, Wister-Ratten. The note with it: male rats, i.v.; for ED50: Rattus norvegicus, iv, read-out: Dosis für 50%ige Inhibierung; for ED50 / Zeit für 50%ige Erholung: anemic decerebrate rigidity. An excerpt:
Die Untersuchungen wurden ausgeführt nach der Methode von Fukuda et al. (Japanese Journal of Pharmacology, Band 24, Seiten 810 - 813, 1974).
Es wurden männliche Wister-Ratten mit einem Köpergewicht von 280 - 380 g verwendet. Die Tiere wurden mit Aether betäubt und am Rücken befestigt. Nach Freilegen der Luft- und Speiseröhre sowie der beiderseitigen, gemeinsamen Carotisarterien wurde die Luftröhre kanüliert und die Speiseröhre abgetrennt. Das Hinterhauptbein wurde durch Abschaben der anhängenden Muskulatur freigelegt. Nach beidseitigem Abbinden der gemeinsamen Carotisarterien wurde im mittleren Teil des Hinterhauptbeines eine Oeffnung von 5 mm Durchmesser trepaniert, um die Basilararterie sichtbar zu machen. Die dura mater wurde längs der Basilararterie durchschnitten und letztere mit einem Coagulator ausgeätzt. Unmittelbar nach Beendigung dieser Massnahmen wurde die Anästhesie unterbrochen. Innerhalb von 30-min entwickelte sich Starre, und es trat eine deutliche Streckung der Extremitäten, des Nackens und des Schwanzes ein. Die Streckung der Vordergliedmassen wurde mit einem Dehnungsmessstreifen erfasst. 50 min nach Erholung von der Betäubung wurden in Salzlösung aufgelöste Pharmaka durch eine in die Oberschenkelvene eingeführte Kanüle intravenös zugeführt. Die verwendeten Pharmaka waren Caroverinfumarat und Referenz-Agenzien, nämlich Mephenesin und Tolperison-Hydrochlorid. Das Ergebnis nach Zuführung von 2 mg/kg Caroverinfumarat sind in der nachstehend eingefügten Tabelle wiedergegeben.

For data set [2], the system named is Ratten. Description: Diuretic effect in rats, method of Lipschitz et al. (Na excretion score). It is filed as in vivo. The note with it: 20 mg/kg p.os, quotient of Na excretion after test substance to Na excretion of control. An excerpt:
Diese Untersuchung an Ratten wurde nach der Methode von Lipschitz et al., j.p.e.t. 79, 97-110, 1954, durchgeführt.
Der errechnete Score entspricht einem Quotienten aus Na-Ausscheidungen nach der Testsubstanz durch Na-Ausscheidung des Kontroll-Leerwertes.
Die Untersuchung an Ratten wurde wie unter 1. durchgeführt. Für den diuretischen Wirkungs-Score gilt gleiches.

Data set [3] has as its system Maus. Description: Acute toxicity in the mouse (new caroverine salts). It is filed as in vivo. The following applies: for Akute Toxizität, observation: in vivo; for Letale Dosis: mouse, i.p. As to the method:
Letale Dosis: • 200 mg/kg i.p..

Data set [4] deals with Meerschweinchen-Lungenpräparat. The data set is described as follows: Bronchodilator effect on guinea pig lung preparation (perfusion flow rate). The following applies: in vitro, 100 µg/ml.
The subject of data set [5] is Agonisten (Atropin). Description: Anticholinergic effect in vitro, guinea pig. On the set-up: species or system Meerschweinchen. The following applies: 10 µg/ml. As for the experimental part:
In vitro ergab sich am Meerschweinchen mit einer Dosis von 10 µg/ml eine mehr als 80 %ige Hemmung des verwendeten Agonisten (Atropin).

The test system of data set [6] is Thrombozytenaggregation. Description: Collagen-induced platelet aggregation in platelet-rich plasma, turbidimetry. It is filed as cell-based, Kaninchen. An excerpt: Thrombozytenreiches Plasma wurde aus citriertem Kaninchenblut gewonnen. Die Thrombozytenaggregation wurde durch Collagen aus Rinder- Achillessehnen induziert, worauf der Aggregations-Hemmeffekt durch optische Trübungsmessung (Turbidimetrie) untersucht und quantifiziert werden konnte.
Bei diesen Diagrammen handelt es sich um Aufnahmen des zeitlichen Verlaufes einer optischen Messgrösse als Mass eines durch das Präparat tretenden Lichtanteils, entsprechend einem reziproken Mass für den Agglutinations- oder Aggregationsgrad. Die verschiedenen Messkurven für je eine Wirksubstanz entsprechen unter- schiedlichen molaren Konzentrationen in Mikromol des Wirkstoffes als Parameter. Die erste Messkurve in Fig. 1 entspricht einem Kontroll-Leerversuch.

Data set [7] concerns Thrombozytenaggregation. Description: Collagen-induced platelet aggregation, same method on human blood preparations. Format: cell-based, menschlichem Blut. The following applies: same method as with rabbit plasma.
For data set [8], the system named is Hunden. The data set is described as follows: Coronary sinus outflow, systemic blood pressure and heart rate in dogs. Format: in vivo. The following applies: dogs, 0,03-3,0 mg/kg, effect increases with dose (Fig. 4-6). As for the experimental part:
Es wurde der coronare Sinus-Ausfluss(CSF), der System-Blutdruck (SEP) und die Herzfrequenz (HR) an Hunden untersucht. Für den coronaren Sinus-Ausfluss wurde die in Clin. Pharmacol. Physiol., 5, 107 - 115, 1978, Australien,beschriebene Untersuchungsmethode angewendet.
Zeitdiagramme der genannten Messgrössen SBP (mmHg), CSF (ml/min) und HR (min ) wurde für […] verschiedene Dosierungen von Caroverinfumarat, nämlich 0,03, 0,1, 0,3, 1,0 und 3,0 mg/kg (bezogen auf das Körpergewicht) aufgenommen. Die Diagramme für die drei erstgenannten Dosierungswerte sind in Fig. 4 und diejenigen für die beiden letztgenannten Dosierungswerte in Fig. 5 bzw. Fig. 6 wiedergegeben. Der Zuführungszeitpunkt der Wirksubstanz ist in den Diagrammen gemäss Fig. 4 durch das Zeichen "o" markiert, während in den Diagrammen gemäss Fig. 5 und 6 das Zuführungsintervall jeweils durch einen Horizontalstrich unterhalb der CSF-Messkurve angegeben ist.

The nature of data set [9]: Acute toxicity (LD50) in male mice. The note with it: mouse, in vivo. An excerpt: Untersuchung der akuten Toxizität an männlichen Mäusen
Es wurden folgende Standard-Grenzwerte LDSO (mg/kg) ermittelt:
Toxizitätsuntersuchung an männlichen Mäusen

The subject of data set [10] is Herzfrequenz. The data set is described as follows: Clinical study: heart rate under stepwise i.v. dosing, treatment groups A, B, C. It is filed as in vivo, Menschen. An excerpt: • a) Anzahl: je 6 Patienten der Gruppen A, B und C. Die Probandenzahl der Gruppe D hängt davon ab […] hoc finden. • b) Die […] des Prüfers. • c) Kontraindikationen […], die nicht für eine klinische Studie mit Ca-Antagonisten geeignet sind, oder unter […] leiden, die die Resultate […]. Die […] 10 und 5' vor Beginn der Medikation. […] Nach Beendigung der Medikation, Nachkontrolle in 10-[…] bis ca. 4 Stunden nach Beginn der Medikation. Abbruch der Medikation bei: • 1) AV-Block 1. […] In einem ersten Schritt wurden die Zeitreihen (Herzfrequenz-Mittelwerte und Streuungen) je Behandlungsgruppe einzeln berechnet und graphisch dargestellt (s. Abbildung und […], die […] auch […] und der 3 Stunden Nachbeobachtung unterscheiden. Es ist ebenfalls festzuhalten, dass die Werte zu Beginn der Applikation gegenüber den Vorwerten durchwegs erhöht sind. Um die Herzfrequenz-Verläufe […] zu […] Differenzen der Mittelwerte zu jedem […] zu den Vorwerten als auch zum Wert bei […] und […] - unter […] und […] - auf Signifikanz geprüft.

The subject of data set [11] is Patienten mit Arrhythmia absoluta.
Experimental: Bei insgesamt 6 Patienten (5♀, 1 ♂) mit Arrhythmia absoluta wurden innerhalb 3 - 5 Min. 200 mg Caroverinfumarat i.v. verabreicht. […] Mittleres Alter der Probanden war 65 (+6/-11) Jahre. Registriert wurden EKG (Frequenz) und Blutdruck (Riva-Rocci) bis max. 13 Minuten nach Injektionsbeginn. Die Min.-Frequenz ermittelte sich aus 10 aufeinanderfolgenden QRS-Komplexen.
Data set [12] concerns isolierte, nach Langendorff perfundierte Meerschweinchenherz. The data set is described as follows: Isolated Langendorff-perfused guinea pig heart: coronary flow, contraction amplitude, heart rate. On the set-up: species or system Meerschweinchen.
Text: Meerschweinchen wurden durch Genickschlag getötet, der Thorax eröffnet, der Herzbeutel aufgeschnitten, die Aorta mit einem Faden angeschlungen und in der pars ascendens angeschnitten. Nach Einbinden einer Glaskanüle in die Aorta wurde die aorta pulmonalis eröffnet und anschliessend das Coronargefässsystem durch die Aortenkanüle unter leichten Druck mit einer Spitze durchgespült. Nach Dulchirennung aller anhängenden Gefässe wurde das Herz an der Aortenkanüle in die feuchte Kammer einer modifizierten Langendorff-Apparatur gehängt und mit carbogengesättigter Tyrodelösung von 37^uC mit einem Druck von 55 cm H20 perfundiert. An der Herzspitze wurde eine Serre fine angebracht, die über einen Faden mit einem zweiarmigen Hebel verbunden war, der die Kontraktionsamplitude auf einem Russkymographen aufzeichnete. Alle Herzen waren mit 4 g belastet. Der Schreibhebel passierte bei seinen Ausschlägen die Lichtschranke einer Fotozelle. Dadurch konnte die Herzfrequenz über einen Totalisator (nach FLEISCH, Firma B. Braun, Melsungen) registriert werden. Die aus dem rechten Vorhof frei abfliessende Perfusionslösung tropfte auf einen elektrischen Kontakt. Die Tropfenzahl wurde mittels eines zweiten Totalisators aufgezeichnet,und nach Eichung in ml/min der Coronardurchfluss bestimmt.
Nach Fertigstellung der Präparate wurde bis zum Versuchsbeginn 45 Min. gewartet. Nach dieser Zeit hatten Kontaktionsamplitude, Frequenz und Coronardurchblutung ein konstantes Niveau erreicht.
Caroverin wurde in Einzeldosen von 1, 10, 100 sowie 1000 ug verabreicht. Theophyllin wurde in Dosen von 10, 100 sowie 1000 ug gegeben. In allen Versuchen wurden Caroverin und Theophyllin abwechselnd verabreicht, wobei jeweils eine Zeitspanne von 5 Min. zwischen zwei Einzelinjektionen lag. Alle Injektionsvolumina betrugen 0.1 ml.
Die Effekte der Substanzen wurden ermittelt,indem in jedem Versuch bei jeder Einzeldosis die maximalen Zu- bzw. Abnahmen der entsprechenden Parameter gegenüber dem jeweiligen Ausganswert bestimmt und diese Einzeleffekte gemittelt wurden. Statistische Signifikanzberechnungen erfolgten nach dem t-Test (student's-Test).
Where [13] appears, read: group B, ca. 70 min after start of application.
[14] abbreviates: group C, 2 1/2 to 3 h after start of application.

Molecules are shown by their SMILES. Structures can show the parent of a compound that is named as a salt. A value given as a limit tells only on which side of the number the result lay.

As to `Cc1ccc(C(=O)C(C)CN2CCCCC2)cc1` (stereo not shown) [Tolperison-Hydrochlorid], in [1], the ED50 was determined as 4 mg/kg and the “Zeit für 50%ige Erholung” value was “ca. 10 min”.
As for `CC(=O)S[C@@H]1CC2=CC(=O)CC[C@]2(C)[C@H]2CC[C@@]3(C)[C@@H](CC[C@@]34CCC(=O)O4)[C@H]12` [Spironolacton, reference compound], the “diuretischer Wirkungs-Score” value in data set [2] is given as 3.6.
Consider `CCN(CC)CCn1c(=O)c(Cc2ccc(OC)cc2)nc2ccccc21` [Caroverin-Theophyllinat], for which the “Akute Toxizität, observation” value is given as “keine Auffälligkeiten” in [3] (300 mg/kg) and “leichte Muskelrelaxation” in data set [3] (ip, 100 mg/kg). In data set [3], the “Letale Dosis” value stood at 200 mg/kg. Further, in [2] (20 mg/kg), the “diuretischer Wirkungs-Score” value was 2.8. In addition, in data set [4], the Perfusions-Fliessrate entry is recorded as “eindeutige Zunahme der Perfusions-Fliessrate”. The “Hemmung des verwendeten Agonisten (Atropin)” value in data set [5] is listed as greater than 80%.
Regarding `CCN(CC)CCn1c(=O)c(Cc2ccc(OC)cc2)nc2ccccc21` [Caroverinfumarat], the Aggregations-Hemmeffekt entry in data set [6] (rabbit platelet-rich plasma, collagen from bovine Achilles tendon, several micromolar concentrations (Fig. 1-3), intensity between Benzyclanfumarat and Aspirin) is listed as “eindeutigen Hemmungseffekt”; in [7], “Aehnliche Ergebnisse”. In data set [8], the “Herzfrequenz (HR)” value was “Herabsetzung der Herzfrequenz”. Further, in data set [8], the “System-Blutdruck (SBP)” value is recorded as “Herabsetzung des System-Blutdrucks”. Besides, the “coronarer Sinus-Ausfluss (CSF)” value in data set [8] is “Rasch zunehmende und langsam abklingende Zunahme des coronaren Sinus-Ausflusses”. Besides, the LD50 in [9] (intravenous) was found to be 39 mg/kg; in [9] (ip, intraperitoneal), 138 mg/kg; in [9] (oral) it was 800 mg/kg. Moreover, the “mittlere Herzfrequenz, % of value before application” value in data set [10] (group A (heart-healthy), end of application after 40 min) turned out to be 86%; in data set [10] (group A, 2 h after start of application), 79%; in data set [10] (group B (coronary heart disease), end of application), 90%; in [10] (setting [13]), 84%; in [10] (group C (diseased conduction system), end of application), 86%; in data set [10] (setting [14]), 82%. Moreover, the “mittlere Herzfrequenz” value in [10] (group A (heart-healthy), end of application after 40 min, 20 mg i.v. then 10 mg every 4 min up to 120 mg, baseline 72/Min.) came out at 62 min⁻¹; in data set [10] (group A, 2 h after start of application, lasting to end of 4 h observation) it was 57 min⁻¹; in data set [10] (group B (coronary heart disease), end of application, baseline 77/Min.), 69 min⁻¹; in [10] (setting [13]), 65 min⁻¹; in [10] (group C (diseased conduction system), end of application, baseline 66/Min.) it was 57 min⁻¹; in data set [10] (setting [14]), 54 min⁻¹. In addition, the ED50 in data set [1] was found to be 1.5 mg/kg. Moreover, the “Zeit für 50%ige Erholung” value in data set [1] is greater than 30 min. In addition, in data set [1] (stronger and longer lasting than Tolperison-Hydrochlorid and Mephenesin), the “anemische Decerebrationsstarre” value is given as “unverzüglich aufgehoben”. In [11] (6 patients, 200 mg i.v.), the Vorhofflimmer-Frequenz entry is listed as “ohne messbare Veränderung”. Further, in [11] (6 patients, 200 mg i.v.), the “rhythmisierender Effekt” value is “nicht nachgewiesen”. For the same compound, the “maximale systolische Blutdruckabfall” value in data set [11] (6 patients, 200 mg i.v. within 3-5 min) is 29,3 (+ 8,2/-9,3) %. Besides, the “diastolische Blutdruckabfall” value in [11] (mean of 6 patients, 200 mg i.v. within 3-5 min) was 26,6 (+ 10,9/-11,6) %. Further, the “maximale Frequenz-Abfall im Vergleich zum Ausgangswert” value in data set [11] (mean of 6 patients, 200 mg i.v. within 3-5 min, up to 13 min after start of injection) is 26,6 (+ 7,2/-4,7) %.
For the compound `CCN(CC)CCn1c(=O)c(Cc2ccc(OC)cc2)nc2ccccc21` [Caroverin-Nicotinat], in [6] (Oryctolagus cuniculus, Platelet, in vitro, rabbit, 10 mcg/ml, read-out: Hemmung der collagen-induzierten Plättchenaggregation), the inhibition at 10 µg/mL was determined as 100%. For the same compound, the “Akute Toxizität, observation” value in data set [3] (300 mg/kg) is reported as “keine Auffälligkeiten”; in data set [3] (ip, 100 mg/kg) it was “Abnahme des Muskeltonus in den Extremitäten, sowie eine leichte Abnahme des Haltegriffes”. Further, the “Letale Dosis” value in [3] is 200 mg/kg. Also, in data set [2] (20 mg/kg), the “diuretischer Wirkungs-Score” value came to 2.6. Moreover, the Perfusions-Fliessrate entry in data set [4] is given as “eindeutige Zunahme der Perfusions-Fliessrate”. For the same compound, in [5], the “Hemmung des verwendeten Agonisten (Atropin)” value was greater than 80%.
On to `Cn1c(=O)c2[nH]cnc2n(C)c1=O` [Theophyllin, reference compound], for which, in [12] (1000pg as printed, in all experiments), the Herzfrequenz entry is listed as “die Herzfrequenz vorübergehend steigerte”. Further, the Kontraktionsamplitude result in data set [12] (doses used (10, 100, 1000 ug)) is on record as “keine signifikanten Aenderungen der Kontraktionsamplitude”. The Coronardurchfluss entry in [12] (single doses Caroverin 1-1000 ug, Theophyllin 10-1000 ug, 1000 Theophyllin about equal to 100 Caroverin) is “steigernde Wirkung auf den Coronardurchfluss”.
Regarding `Cc1ccccc1OCC(O)CO` (stereo not shown) [Mephenesin], in data set [1], the ED50 is 25 mg/kg and the “Zeit für 50%ige Erholung” value is “ca 13 min”.

A word on the LD50: it is the dose at which mortality reaches 50%. A lower LD50 goes with a more toxic substance.
